Measured values reported in patent US8901105B2, “Prodrug derivatives of (E)-N-methyl-N-((3-M ethylbenzofuran-2-yl)methyl)-3-(7-oxo-5,6,7,8-tetrahydro-1,8-naphthyridin-3-yl)acrylamide” (Affinium Pharmaceuticals, Inc., priority 2012, dated 2014).
≈ marks a conversion by molar mass, not a printed value. Counter-ions that a name gives are not always drawn. Like-named read-outs stand apart in the source and are kept apart here.

Columns and labels:
[1] = Aqueous solubility of salts at 25° C.; type: physicochemical; details: water, 25° C., mg free acid equivalent/mL; for Solubility in Water: dipotassium salt; for solubility: thermodynamic from solid, read-out: Solubility in Water
[2] = system: Enterococcus faecalis; experiment: Broth microdilution MIC; type: cell-based
Experimental: (§1) Bacterial Isolates. Organisms tested in this study are listed in Table P. Clinical isolates consisted of 5 Staphylococcus aureus (MSSA), 3 Staphylococcus aureus (HA-MRSA), 2 Staphylococcus aureus (CA-MRSA), 2 Enterococcus faecalis (VSE), 2 Streptococcus pyogenes, and 2 Escherichia coli (susceptible to most antibiotics). S. aureus ATCC 29213, E. faecalis ATCC 29212, S. pneumoniae ATCC 49619, and E. coli ATCC 25922 were tested for the purposes of quality control.
(§2) Minimal Inhibitory Concentrations (MIC) values against the selected isolates were determined using the reference broth microdilution method according to the Clinical Laboratory Standards Institute (CLSI) guidelines.
(§3) The MIC was read and recorded as the lowest concentration of drug that inhibited visible growth of the organism.

[3] = system: Escherichia coli; experiment: Broth microdilution MIC; type: cell-based
Experimental: as §1, §2, §3

[4] = system: Staphylococcus aureus; experiment: Broth microdilution MIC; type: cell-based; details: Staphylococcus aureus
Experimental: as §1, §2, §3

[5] = system: Streptococcus pneumoniae; experiment: Broth microdilution MIC; type: cell-based
Experimental: as §1, §2, §3

[6] = system: Streptococcus pyogenes; experiment: Broth microdilution MIC; type: cell-based
Experimental: as §1, §2, §3

[7] = Solid-state stability (HPLC % area after storage); type: physicochemical; details: for Solid-state stability % Area: 4 weeks
Experimental: (§4) Various compounds disclosed herein have been placed on long-term solid-state stability protocol. The compounds were stored in glass vials closed with PTFE lined caps at 30° C./65% RH, 40° C./75% RH, 50° C. and 60° C. (ambient humidity). The results of the study after 4 weeks are shown in Table B1 and after 3 months in Table B2. Appearance and purity analysis were conducted using HPLC and XPRD. The HPLC analyses were conducted using standard equipment such as a Agilent HP1100 HPLC (Station ID: LZPES HPLC 04) with YMC-Pack ODS-AQ sub 3 μm, 150×4.6 mm

[8] = XRPD crystal form after storage; type: physicochemical; details: 4 weeks storage
Experimental: as §4, with “mm Samples were prepared for XRPD by sprinkling ˜20 mg onto a Si wafer zero background plate and pressing the material flat to ensure the surface is smooth and level. The samples were analyzed according the equipment parameters below.” for “mm”

[9] = ATCC29212, E. faecalis ATCC 29212, read-out: MIC
[10] = E. faecalis 4158, VSE, read-out: MIC
[11] = E. faecalis 4212, VSE, read-out: MIC
[12] = Escherichia coli, ATCC25922, E. coli ATCC 25922, read-out: MIC
[13] = Escherichia coli, E. coli 2214, read-out: MIC
[14] = Escherichia coli, E. coli 5255, read-out: MIC
[15] = ATCC29213, S. aureus ATCC 29213, read-out: MIC
[16] = MRSA, S. aureus 3083, HA-MRSA, read-out: MIC
[17] = MRSA, S. aureus 3086, HA-MRSA, read-out: MIC
[18] = MRSA, S. aureus 3265, HA-MRSA, read-out: MIC
[19] = MSSA, S. aureus 3104, MSSA, read-out: MIC
[20] = MSSA, S. aureus 3107, MSSA, read-out: MIC
[21] = MSSA, S. aureus 3245, MSSA, read-out: MIC
[22] = MSSA, S. aureus 3250, MSSA, read-out: MIC
[23] = MSSA, S. aureus 3856, MSSA, read-out: MIC
[24] = S. aureus 2168, CAMRSA, read-out: MIC
[25] = S. aureus 2294, CAMRSA, read-out: MIC
[26] = ATCC49619, S. pneumoniae ATCC 49619, read-out: MIC
[27] = Streptococcus pyogenes, S. pyogenes 6179, read-out: MIC

Molecule	MIC [2, 9] [mg/L]	MIC [2, 10] [mg/L]	MIC [2, 11] [mg/L]	MIC [3, 12] [mg/L]	MIC [3, 13] [mg/L]	MIC [3, 14] [mg/L]	MIC [4, 15] [mg/L]	MIC [4, 16] [mg/L]	MIC [4, 17] [mg/L]	MIC [4, 18] [mg/L]	MIC [4, 19] [mg/L]	MIC [4, 20] [mg/L]	MIC [4, 21] [mg/L]	MIC [4, 22] [mg/L]	MIC [4, 23] [mg/L]	MIC [4, 24] [mg/L]	MIC [4, 25] [mg/L]	MIC [5, 26] [mg/L]	MIC ([6]; S. pyogenes 6528) [mg/L]	MIC [6, 27] [mg/L]	further results
(E)-6-[(N-methyl-((3-methylbenzofuran-2-yl)methyl)amino)-3-oxoprop-1-en-1-yl)-2-oxo-3,4-dihydro-1,8-naphthyridin-1(2H)-yl]methylphosphate dipotassium salt [Bis-Potassium (amorphous) (Compound 11)]	–	–	–	–	–	–	–	–	–	–	–	–	–	–	–	–	–	–	–	–	Solubility in Water [1]: >100 mg/mL
CC(=O)NC[C@H]1CN(c2ccc(N3CCOCC3)c(F)c2)C(=O)O1 [Linezolid]	1 (≈ 2.96 µM)	1 (≈ 2.96 µM)	1 (≈ 2.96 µM)	64 (≈ 190 µM)	> 64	64 (≈ 190 µM)	4 (≈ 11.9 µM)	2 (≈ 5.93 µM)	2 (≈ 5.93 µM)	2 (≈ 5.93 µM)	2 (≈ 5.93 µM)	2 (≈ 5.93 µM)	2 (≈ 5.93 µM)	4 (≈ 11.9 µM)	2 (≈ 5.93 µM)	2 (≈ 5.93 µM)	2 (≈ 5.93 µM)	1 (≈ 2.96 µM)	1 (≈ 2.96 µM)	1 (≈ 2.96 µM)	–
Cc1c(CN(C)C(=O)/C=C/c2cnc3c(c2)CCC(=O)N3COP(=O)([O-])[O-])oc2ccccc12.[K+].[K+] [Compound 11]	–	–	–	–	–	–	–	–	–	–	–	–	–	–	–	–	–	–	–	–	content after storage (degradation) ([7]; 4 weeks at 40/75): ~65%; chemical stability ([7]; over 1 month at 30° C./65% RH, 40° C./75% RH and 50° C., closed vials, light protected): not chemically stable; change in XRPD [8]: some changes
Cc1c(CN(C)C(=O)/C=C/c2cnc3c(c2)CCC(=O)N3COP2(=O)[O][Mg][O]2)oc2ccccc12 [Compound 12, (E)-6-[(N-methyl-((3-methylbenzofuran-2-yl)methyl)amino)-3-oxoprop-1-en-1-yl)-2-oxo-3,4-dihydro-1,8-naphthyridin-1 (2H)-yl]methylphosphate magnesium salt]	–	–	–	–	–	–	–	–	–	–	–	–	–	–	–	–	–	–	–	–	solubility [1]: < 1 mg/mL
Cc1c(CN(C)C(=O)/C=C/c2cnc3c(c2)CCC(=O)N3)oc2ccccc12 [Compound IV, (E)-N-methyl-N-((3-methylbenzofuran-2-yl)methyl)-3-(7-oxo-5,6,7,8-tetrahydro-1,8-naphthyridin-3-yl)acrylamide, reference compound]	–	–	–	–	–	–	–	–	–	–	–	–	–	–	–	–	–	–	–	–	solubility ([1]; 25 °C): < 0.001 mg/mL
CN[C@H](CC(C)C)C(=O)N[C@H]1C(=O)N[C@@H](CC(N)=O)C(=O)N[C@H]2C(=O)N[C@H]3C(=O)N[C@H](C(=O)N[C@H](C(=O)O)c4cc(O)cc(O)c4-c4cc3ccc4O)[C@H](O)c3ccc(c(Cl)c3)Oc3cc2cc(c3O[C@@H]2O[C@H](CO)[C@@H](O)[C@H](O)[C@H]2O[C@H]2C[C@](C)(N)[C@H](O)[C@H](C)O2)Oc2ccc(cc2Cl)[C@H]1O [Vancomycin]	–	–	–	–	–	–	–	–	–	–	–	–	–	–	–	–	–	–	0.25 (≈ 0.173 µM)	–	MIC ([2]; ATCC29212, E. faecalis ATCC 29212): 1 mg/L (≈ 0.69 µM); MIC ([2]; E. faecalis 4158, VSE): > 64 mg/L; MIC ([2]; E. faecalis 4212, VSE): 16 mg/L (≈ 11 µM); MIC ([3]; E. coli 5255): >64 mg/L; MIC ([3]; Escherichia coli): > 64 mg/L; MIC ([3]; Escherichia coli, ATCC25922): > 64 mg/L; MIC ([4]; ATCC29213, S. aureus ATCC 29213): 0.5 mg/L (≈ 0.345 µM); MIC ([4]; MRSA, S. aureus 3083, HA-MRSA): 0.5 mg/L (≈ 0.345 µM); MIC ([4]; MRSA, S. aureus 3086, HA-MRSA): 1 mg/L (≈ 0.69 µM); MIC ([4]; MRSA, S. aureus 3265, HA-MRSA): 0.5 mg/L (≈ 0.345 µM); MIC ([4]; MSSA, S. aureus 3104): 0.5 mg/L (≈ 0.345 µM); MIC ([4]; MSSA, S. aureus 3107): 0.5 mg/L (≈ 0.345 µM); MIC ([4]; MSSA, S. aureus 3245): 0.5 mg/L (≈ 0.345 µM); MIC ([4]; MSSA, S. aureus 3250): 0.5 mg/L (≈ 0.345 µM); MIC ([4]; MSSA, S. aureus 3856): 1 mg/L (≈ 0.69 µM); MIC ([4]; S. aureus 2168, CAMRSA): 1 mg/L (≈ 0.69 µM); MIC ([4]; S. aureus 2294, CAMRSA): 1 mg/L (≈ 0.69 µM); MIC ([5]; ATCC49619): 0.12 mg/L (≈ 0.0828 µM); MIC ([6]; Streptococcus pyogenes): 0.25 mg/L (≈ 0.173 µM)
(E)-6-[(N-methyl-((3-methylbenzofuran-2-yl)methyl)amino)-3-oxoprop-1-en-1-yl)-2-oxo-3,4-dihydro-1,8-naphthyridin-1(2H)-yl]methylphosphate dipotassium salt [Bis-Potassium (crystalline) (Compound 11)]	–	–	–	–	–	–	–	–	–	–	–	–	–	–	–	–	–	–	–	–	Solubility in Water [1]: 30 to 35 mg/mL; Solid-state stability % Area ([7]; 30° C./65% RH): 87.8 % Area; Solid-state stability % Area ([7]; 40° C./75% RH): 64.3 % Area; Solid-state stability % Area ([7]; 50° C./ambient humidity): 72.5 % Area; Solid-state stability % Area ([7]; 60° C./ambient humidity): 50.7 % Area; Solid-state stability % Area ([7]; Control (ambient lab conditions protected from light)): 95.4 % Area
Cc1c(CN(C)C(=O)/C=C/c2cnc3c(c2)CCC(=O)N3)oc2ccccc12 [Compound Z, (E)-N-methyl-N-((3-methylbenzofuran-2-yl)methyl)-3-(7-oxo-5,6,7,8-tetrahydro-1,8-naphthyridin-3-yl)acrylamide]	> 2	> 2	> 2	> 2	> 2	> 2	0.004 (≈ 0.0107 µM)	0.004 (≈ 0.0107 µM)	0.03 (≈ 0.0799 µM)	0.004 (≈ 0.0107 µM)	0.015 (≈ 0.04 µM)	0.004 (≈ 0.0107 µM)	0.015 (≈ 0.04 µM)	0.004 (≈ 0.0107 µM)	0.004 (≈ 0.0107 µM)	0.004 (≈ 0.0107 µM)	0.03 (≈ 0.0799 µM)	> 2	>2	> 2	–
O=C(O)c1cn(C2CC2)c2cc(N3CCNCC3)c(F)cc2c1=O [Ciprofloxacin]	0.5 (≈ 1.51 µM)	64 (≈ 193 µM)	32 (≈ 96.6 µM)	0.008 (≈ 0.0241 µM)	0.015 (≈ 0.0453 µM)	0.008 (≈ 0.0241 µM)	0.5 (≈ 1.51 µM)	32 (≈ 96.6 µM)	> 64	> 64	0.25 (≈ 0.754 µM)	0.5 (≈ 1.51 µM)	0.5 (≈ 1.51 µM)	2 (≈ 6.04 µM)	> 64	16 (≈ 48.3 µM)	> 64	0.5 (≈ 1.51 µM)	0.5 (≈ 1.51 µM)	0.5 (≈ 1.51 µM)	–
Cc1c(CN(C)C(=O)/C=C/c2cnc3c(c2)CCC(=O)N3COP2(=O)[O][Ca][O]2)oc2ccccc12 [Compound 13, (E)-6-[(N-methyl-((3-methylbenzofuran-2-yl)methyl)amino)-3-oxoprop-1-en-1-yl)-2-oxo-3,4-dihydro-1,8-naphthyridin-1(2H)-yl]methylphosphate calcium salt]	–	–	–	–	–	–	–	–	–	–	–	–	–	–	–	–	–	–	–	–	solubility [1]: < 0.1 mg/mL
